In patent US12472272B2, “Radiolabelled compounds for diagnosis or treatment of prostate-specific membrane antigen- expressing cancer” (PROVINCIAL HEALTH SERVICES AUTHORITY, priority 2019, dated 2025):

Legend:
[1] = test system: PSMA-expressing LNCAP cancer xenografts; assay: Biodistribution of ^68Ga-labeled PSMA-targeting tracers; assay type: in vivo, mice; conditions: 1 h post-injection
Procedure: (§1) Imaging and biodistribution experiments were performed using NODSCID 1L2RγKO male mice. Mice were anesthetized by inhalation with 2% isoflurane in oxygen, and implanted subcutaneously with 1×10^7 LNCaP cells behind left shoulder. Mice were imaged or used in biodistribution studies when the tumor grew up to reach 5-8 mm in diameter during 5-6 weeks.
(§2) PET imaging experiments were conducted using Siemens Inveon micro PET/CT scanner. Each tumor bearing mouse was injected 6-8 MBq of Ga-68 labeled tracer through the tail vein under anesthesia (2% isoflurane in oxygen). The mice were allowed to recover and roam freely in their cage. After 50 min, the mice were sedated again with 2% isoflurane in oxygen inhalation and positioned in the scanner. A 10-min CT scan was conducted first for localization and attenuation correction after segmentation for reconstructing the PET images. Then, a 10-min static PET imaging was performed to determined uptake in tumor and other organs. The mice were kept warm by a heating pad during acquisition. For imaging studies acquired at 3 h post-injection (p.i.), the mice were placed in the micro PET/CT scanner at 170 min p.i. Then, the CT acquisitions were conducted as described above, a 15-min static PET imaging was performed to determined uptake in tumor and other organs.
For biodistribution studies, the mice were injected with the radiotracer as described above. At predetermined time points (1 or 3 h for ^68Ga studies; 1, 4, 24, 72, or 120 h for ^177Lu studies), the mice was anesthetized with 2% isoflurane inhalation, and euthanized by CO2 inhalation. Blood was withdrawn immediately from the heart, and the organs/tissues of interest were collected. The collected organs/tissues were weighed and counted using a Perkin Elmer (Waltham, MA) Wizard2 2480 gamma counter. The uptake in each organ/tissue was normalized to the injected dose using a standard curve, and expressed as the percentage of the injected dose per gram of tissue (% ID/g).

[2] = test system: LNCaP tumors; assay: PET/CT imaging of ^68Ga-labeled tracers; assay type: in vivo, mice; conditions: FIG. 3
Procedure: as §1, §2

Question: O=C([O-])CN1CCN(CC(=O)[O-])CCN(CC(=O)NC[C@H]2CC[C@H](C(=O)N[C@@H](Cc3ccc4ccc5cccc6ccc3c4c56)C(=O)NCCCC[C@H](NC(=O)N[C@@H](CCC(=O)O)C(=O)O)C(=O)O)CC2)CCN(CC(=O)[O-])CC1.[68Ga+3] [^68Ga-HTK03029] was tested. Which “Tissue (% ID/g): Adrenal glands” value [1] did it give?
Answer: 4.91 ± 1.57 % ID/g

Question: What about the “Tissue (% ID/g): Blood” value [1] of the same compound?
Answer: 3.93 ± 0.91 % ID/g

Question: What about the “Tissue (% ID/g): Bone” value [1] of the same compound?
Answer: 0.92 ± 0.14 % ID/g

Question: And the “Tissue (% ID/g): Brain” value [1]?
Answer: 0.09 ± 0.02 % ID/g

Question: And the “Tissue (% ID/g): Fat” value [1]?
Answer: 1.57 ± 0.42 % ID/g

Question: And the “Tissue (% ID/g): Heart” value [1]?
Answer: 1.25 ± 0.27 % ID/g

Question: And the “Tissue (% ID/g): Intestine” value [1]?
Answer: 0.77 ± 0.11 % ID/g

Question: What about the “Tissue (% ID/g): Kidneys” value [1] of the same compound?
Answer: 198 ± 49.3 % ID/g

Question: What about the “Tissue (% ID/g): Lacrimal” value [1] of the same compound?
Answer: 1.06 ± 0.49 % ID/g

Question: And the “Tissue (% ID/g): Liver” value [1]?
Answer: 1.32 ± 0.63 % ID/g

Question: What about the “Tissue (% ID/g): Lungs” value [1] of the same compound?
Answer: 3.59 ± 0.69 % ID/g

Question: What about the “Tissue (% ID/g): Muscle” value [1] of the same compound?
Answer: 0.63 ± 0.10 % ID/g

Question: What about the “Tissue (% ID/g): Pancreas” value [1] of the same compound?
Answer: 0.94 ± 0.18 % ID/g

Question: And the “Tissue (% ID/g): Salivary” value [1]?
Answer: 3.27 ± 1.02 % ID/g

Question: And the “Tissue (% ID/g): Seminal” value [1]?
Answer: 6.74 ± 10.7 % ID/g

Question: And the “Tissue (% ID/g): Spleen” value [1]?
Answer: 7.08 ± 5.08 % ID/g

Question: And the “Tissue (% ID/g): Stomach” value [1]?
Answer: 0.31 ± 0.08 % ID/g

Question: And the “Tissue (% ID/g): Tail” value [1]?
Answer: 2.18 ± 0.65 % ID/g

Question: And the “Tissue (% ID/g): Testes” value [1]?
Answer: 1.02 ± 0.13 % ID/g

Question: And the “Tissue (% ID/g): Thyroid” value [1]?
Answer: 1.57 ± 0.32 % ID/g

Question: And the “Tissue (% ID/g): Tumor” value [1]?
Answer: 13.9 ± 6.58 % ID/g

Question: And the “Tissue (% ID/g): Urine” value [1]?
Answer: 175 ± 178 % ID/g

Question: And the “tumor-to-background contrast ratio Tumor: Blood” value [1]?
Answer: 3.39 ± 1.01

Question: And the “tumor-to-background contrast ratio Tumor: Muscle” value [1]?
Answer: 21.3 ± 7.50

Question: What about the “tumor-to-background contrast ratio Tumor: kidney” value [1] of the same compound?
Answer: 0.07 ± 0.02

Question: What about the “Tissue (% ID/g): Tumor” value ([1]; listed as 68Ga-labeled HTK03029) of the same compound?
Answer: ~13 % ID/g

Question: And the “uptake in PET/CT images” value [2]?
Answer: higher uptake was observed in LNCap tumor xenografts, kidneys and urinary bladders
